These results are taken from paper PMC8944662 (Proceedings of the National Academy of Sciences of the …, 2022).

The assay deals with NfnL (isolated large subunit of NADH-dependent ferredoxin-NADP+ oxidoreductase I) (Pyrococcus furiosus, UniProt Q8U195). Nature of the assay: intrinsic Trp/Tyr fluorescence quenching titration, Morrison fit. Format: binding.
NfnL (isolated large subunit of NADH-dependent ferredoxin-NADP+ oxidoreductase I), sequence (Q8U195 whole entry): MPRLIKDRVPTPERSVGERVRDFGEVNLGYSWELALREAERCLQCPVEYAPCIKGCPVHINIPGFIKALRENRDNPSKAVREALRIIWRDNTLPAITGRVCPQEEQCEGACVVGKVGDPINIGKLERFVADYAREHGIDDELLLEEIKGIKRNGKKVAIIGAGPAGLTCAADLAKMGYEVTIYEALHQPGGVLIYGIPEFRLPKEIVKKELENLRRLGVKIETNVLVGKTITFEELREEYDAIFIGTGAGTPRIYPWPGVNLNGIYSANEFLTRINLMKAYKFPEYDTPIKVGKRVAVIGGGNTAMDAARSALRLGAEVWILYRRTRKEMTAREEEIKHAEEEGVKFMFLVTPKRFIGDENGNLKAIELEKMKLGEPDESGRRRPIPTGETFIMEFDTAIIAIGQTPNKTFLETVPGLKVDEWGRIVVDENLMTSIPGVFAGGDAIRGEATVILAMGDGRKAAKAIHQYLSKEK

The compound `NC(=O)c1ccc[n+]([C@@H]2O[C@H](COP(=O)(O)OP(=O)(O)OC[C@H]3O[C@@H](n4cnc5c(N)ncnc54)[C@H](OP(=O)(O)O)[C@@H]3O)[C@@H](O)[C@H]2O)c1` [NADP^+] gave a Kd of 3 ± 0.4 µM.

`NC(=O)C1=CN([C@@H]2O[C@H](COP(=O)(O)OP(=O)(O)OC[C@H]3O[C@@H](n4cnc5c(N)ncnc54)[C@H](OP(=O)(O)O)[C@@H]3O)[C@@H](O)[C@H]2O)C=CC1` [NADPH] displayed a Kd of 3 ± 0.4 µM.
